Patent publication US5733904A, “Method for prevention and treatment of viral infectious diseases for viral suppression” (priority 1996, dated 1998)
pIC50: −log10 of the molar value.

How the values were obtained:
HIV-1 = assay: Comparison of suppressive activity of HIV proliferation with FAS and other anti-HIV drugs (syncytium formation); type: cell-based; details: for pIC50: Human immunodeficiency virus 1, FIG. 5, approximate, read-out: 50% inhibitory concentration, syncytium formation
Description: Comparison of suppressive activity of HIV proliferation with FAS and other anti-HIV drugs.
Experiments were conducted by the same method as in Example 3.
The medicaments used in this experiment were compounds of the present invention (FAS, and a compound of formula [I] where R^1 is hydroxy as in the above-mentioned Japanese Patent Unexamined Publication No. 61-152658), ddI (Sigma Corp.) and AZT (Sigma Corp.) which are used as medicaments for the treatment of AIDS, and dextran sulfate (Sigma Corp.).

rabbit platelets = assay: Platelet aggregation; type: cell-based, rabbit (male, Japanese white); details: for Platelet aggregation rate, ADP: ADP 5 μM, control 66.3 ± 1.4; for Platelet aggregation rate, ADP / Platelet aggregation rate, Collagen: N=4, mean ± S.E.; for Platelet aggregation rate, Collagen: collagen 5 μg/ml, control 82.3 ± 1.6
Description: Rabbits (male, Japanese white, body weight 2-3 kg, Oriental Yeast Co.) were used. Blood was collected from an ear vein, a 1/10 volume of 3.8% sodium citrate was added thereto, and the mixture was centrifuged at 1,000 rpm for 10 minutes.
The supernatant separated by this action was designated platelet rich plasma (PRP), and the precipitate was further centrifuged at 3,000 rpm for 10 minutes to obtain a further supernatant, which was designated platelet poor plasma (PPP).
The number of platelets in the PRP was adjusted to 3×10^5 plate/μl by adding the PPP. A test sample was added to the PRP. After 1 minute, a prepared aqueous solution of ADP (adenosine diphosphate, Sigma Corp.) was added at the final concentration of 5 μM, or an aqueous solution of collagen (Sigma Corp.) was added at the final concentration of 5 μg/ml. The agglutination reaction was measured by using an agglico meter (NBS HEMA TRACER VI). The inhibition rate was calculated by comparing the maximum optical transmittance in samples with the compound to the maximum optical transmittance in samples with a physiological saline.
The compounds used were compounds of the present invention (FAS, and the compound of formula [I] where R^1 is hydroxy (Japanese Patent Unexamined Publication No. 61-152658) and adenosine (Sigma Corp.).

rabbit plasma = assay: Blood coagulation time (APTT, PT); set-up: species or system rabbit (male, Japanese white); details: for PT / APTT: N=4, mean ± S.E.; for PT: control 5.8 ± 0.1; for APTT: control 21.2 ± 0.5
Description: a) Blood coagulation time:
Rabbits (male, Japanese white, body weight 2-3 kg, Oriental Yeast Co.) were used. […] After adding the test compound to the resultant plasma, activated partial thromboplastin time (APTT) and prothrombin time (PT) were measured by using a coagulometer (Coagtec, Coagtec TE600, EMRA; KC-10A, Baxter).

Acute toxicity in mice = assay: Acute toxicity in mice; set-up: species or system mouse (Slc: ddy, 5 weeks); details: mouse, in vivo, iv, i. v., male
Description: Acute toxicity of the compounds of the present invention were conducted on rats and mice, and low toxicity was confirmed.

[1] = tested on: Herpes simplex virus type I; assay: Inhibitory action for plaque formation of Herpes simplex virus type I; type: cell-based; details: mean of two, control 51
Description: (§1) Experiments were performed according to a method described in Antiviral Chemistry and Chemotherapy, 5 (6), 366-371, 1994 and Experimental Virology, Ed. by NIH Japan alumni assoc., Maruzen Publ. 1982, p. 65-78 or p. 331-340.
(§2) Vero cells cultured in the medium (Dulbecco's modified MEM added with 10% FBS) were detached by trypsin (Sigma Corp.). The detached cells were suspended by 2×10^5 cells/ml in the same medium, and placed in the wells of a 48 hole plate. The plate was incubated at 37° C. under 5% CO2 for about one day to complete a full-sheet of the cells in all wells. After incubation, cultured supernatant was removed. A solution (50 μl) containing the compound diluted with 4-fold stepwise dilution by virus culture medium (MM: Dulbecco's modified MEM added with 2% FBS), was added thereto.
(§3) A viral solution, 50 μl, in which the number of virus (parainfluenza virus or Herpes simplex virus type I) was adjusted to about 50 pfu (plaque forming unit)/50 μl by MM, was added to each well. MM 400 μl containing 1% methylcellulose was added in each well to provide a compound-added test group. A control group was prepared by adding the viral culture medium without adding the test compound.
(§4) The groups were incubated at 37° C. under 5% CO2 for three days to form plaques and the number of plaques in each well was counted.
(§5) The test compounds were FAS, and the compound of formula [I] where R^1 is hydroxy. The final concentration of the compound in the solution was set to 100, 25, 6.3 and 1.6 μg/ml, respectively. Each test group included 2 wells and a mean of the plaque numbers was obtained.

parainfluenza virus = assay: Inhibitory action for plaque formation of parainfluenza virus; type: cell-based; details: mean of two, control 51.5
Description: as §1, §2, §3, §4, §5

[2] = tested on: HIV-1 (LAV-1 strain) in MOLT-4 cells; assay: Inhibitory activity of HIV syncytia formation: HIV-1 acute-phase infection; type: cell-based; details: for inhibition at 30 µM: Human immunodeficiency virus 1, MOLT-4, in concentrations of 30 μM, 48 hours; for inhibitory effects on syncytia formation: in concentrations of 2.0 μM
Description: a) Activity of the medicament on HIV-1 acute-phase infection:
Cells obtained by culturing MOLT-4 (American Type Culture Collection ATCC CRL-1582) in RPMI medium (GIBCO Corp.) containing 10% FBS (fetal bovine serum: GIBCO Corp.) (culture condition: 37° C., 5% CO2 /95% air) were prepared to aliquot number of cells (1×10^5 cells/50 μl). The cell suspension, 50 μl and the liquid preparation, 50 μl containing HIV-1 (LAV-1 strain, Wain-Hobson et al., Cell 40: 9-17, 1985) in RPMI medium with 10% FBS were put into each well of a 96 hole microplate and cultured for 48 hours (Infectious condition of MOLT-4 and HIV-1: M.O.I.=4.0).
Each compound was dissolved in RPMI medium containing 10% FBS at the final concentration as shown in FIG. 1 to prepare the medicament solution. The medicament solution, 100 μl was added to the mixture of MOLT-4 cell preparation and HIV-1 preparation at the time of mixing with MOLT-4 and HIV-1 to prepare the final volume of the liquid, 200 μl. The number of formed syncytia were microscopically counted.
Tested compounds were: FAS (fasudil hydrochloride, Chem. Pharm. Bull., 40 (3), 770-773, (1992)), C kinase inhibitor H-7 (1-5-isoquinolinylsulfonyl)-2-methyl-piperazine, Sigma Corp.), and calmodulin kinase II inhibitor KN-62 (1-(N,O-bis-[5-isoquinolinylsulfonyl]-N-methyl-L-tyrosyl)-4-phenyl-piperazine, Sigma Corp., Neuroscience Lett., 129, 47 (1991)) .
The control group without the compound was prepared by replacing the medicament solution, 100 μl.
Syncytium formation activity was calculated by comparing the syncytia formation in the test group to that of the control group in the following equation.
Syncytium formation activity=number of syncytia formed in the medicament-added group/number of syncytia formed in the no-medicament-added group.

[3] = tested on: HIV-1 (LAV-1) persistently infected MOLT-4 cells with non-infected MOLT-4 cells; assay: Inhibitory activity of HIV syncytia formation: HIV-1 chronic-phase infection; type: cell-based; details: FIG. 2; 48 hours
Description: b) Activity of the medicament on HIV-1 chronic-phase infection:
Cells obtained by culturing MOLT-4 (culture condition: 37° C., 5% CO2 /95% air, RPMI medium (GIBCO Corp.) containing 10% FBS) were adjusted to a preferable number of cells (1×10^5 cells/50 μl). HIV-1 (LAV-1) preparation, 50 μl was added to the cell suspension, 50 μl and subjected to a mixing culture (infectious condition of HIV-1 to MOLT-4: M.O.I.=1). The infected cell mixture was cultured by exchanging a fresh culture medium every 3 days at a volume rate of 2:5. The culture was continued for more than 1 month to prepare persistent infected cells. The concentration of the persistent infected cells was adjusted to a preferable number of cells (1×10^5 cells/50 μl ) (the persistent infected cell preparation).
Cell preparation without infection was prepared by culturing MOLT-4 (culture condition: 37° C., 5% CO2 /95% air, RPMI medium (GIBCO Corp.) containing 10% FBS) and adjusting the concentration to a preferable number of cells (1×10^5 cells/50 μl).
The persistent infected cell preparation, 50 μl, was placed in the wells of a 96 hole microplate and the non-infected cell preparation, 50 μl, was added therein and cultured for 48 hours. Numbers of the formed syncytia were counted microscopically.
Each compound solution tested was added, 100 μl, at the time of mixing the persistent infected cell preparation with the non-infected cell preparation, to provide the final concentrations shown in FIG. 2 (medicament added test group).
The no-medicament-added group (control group) was prepared by replacing the compound solution, 100 μl.

[4] = tested on: Env (gp120) protein, HIV-1 infected MOLT-4 cells; assay: Suppressive action on expression of Env (gp120) protein on the surface of cells; type: cell-based; details: FIG. 3; Env positive cells after 5 days
Description: (Suppressive action on expression of Env (gp120) protein on the surface of cells.)
Cells obtained by culturing MOLT-4 (culture condition: 37° C., 5% CO2 /95% air, RPMI medium (GIBCO Corp.) containing 10% FBS) were adjusted to a preferable number of cells (1×10^5 cells/50 μl ). The cell suspension, 50 μl, (infected with MOLT-4 and HIV-1: M.O.I.=1.0) was put in a 96 hole microplate and cultured for 1 hour to infect the cells.
A solution of the compound shown below, 100 μl, was added in each well and cultured for 5 days. The cultured solution was transferred into a plastic tube (Eppendorf Corp.) and centrifuged to collect the cells. The cells were treated with mouse anti-Env gp120 monoclonal antibody (Replingen Inc.) as a primary antibody and FITC (Fluorescein Isothiocyanate) labelled goat anti-mouse IgG (Cappel Corp.) as a secondary antibody to fluoresce. The number of fluorescent cells was fluoroscopically calculated by counting fluorescent cells according to an indirect fluorescent antibody technique (Techniques in HIV Research, Ed. A. Aldoriny and B. D. Walker, Stokton Press, New York, 1990).
Env positive cells (%) was calculated by the following equation:
Env positive cells (%)=(FITC) positive cells/total cells)×100
Compounds: FAS, H-7 and KN-62.
Control: solution without compound was used.

HIV = details: Antiviral Res., 22: 273-283, 1993; cited from earlier work

Compound: Cc1cn([C@H]2C[C@H](N=[N+]=[N-])[C@@H](CO)O2)c(=O)[nH]c1=O [AZT, 3'-azido-3'-deoxythymidine]
- pIC50 (HIV-1): ~4.30

Compound: Nc1ncnc2c1ncn2[C@@H]1O[C@H](CO)[C@@H](O)[C@H]1O [Adenosine, adenosine]
- effect on ADP coagulation and collagen coagulation (rabbit platelets): suppressed ADP coagulation and collagen coagulation

Compound: O=S(=O)(c1cccc2c(O)nccc12)N1CCCNCC1 [Compound of the formula [I] (R^1 = OH)]
- inhibitory activity of syncytium formation of HIV-1 (HIV-1): inhibited the formation of syncytium of HIV-1
- effect on blood coagulation time (APTT, PT) (rabbit plasma): no effect on blood coagulation time
- PT (rabbit plasma; 30 μM): 5.6 ± 0.1 s
- APTT (rabbit plasma; 30 μM): 20.2 ± 0.4 s
- PT (rabbit plasma; 100 μM): 5.5 ± 0.1 s
- APTT (rabbit plasma; 100 μM): 20.1 ± 0.4 s
- Platelet aggregation rate, ADP (rabbit platelets; 10 μM): 63.0 ± 2.3%
- Platelet aggregation rate, Collagen (rabbit platelets; 10 μM): 80.0 ± 1.7%
- Platelet aggregation rate, ADP (rabbit platelets; 30 μM): 63.8 ± 2.9%
- Platelet aggregation rate, Collagen (rabbit platelets; 30 μM): 79.3 ± 1.1%
- Platelet aggregation rate, ADP (rabbit platelets; 100 μM): 64.3 ± 3.8%
- Platelet aggregation rate, Collagen (rabbit platelets; 100 μM): 81.0 ± 1.2%
- LD50 (Acute toxicity in mice): 119 mg/kg
- Plaque No. ([1]; 1.6 μg/ml): 51
- Plaque No. ([1]; 6.3 μg/ml): 51
- Plaque No. ([1]; 25 μg/ml): 56
- Plaque No. ([1]; 100 μg/ml): 37.5
- Plaque No. (parainfluenza virus; 25 μg/ml): 59
- Plaque No. (parainfluenza virus; 100 μg/ml): 4.5

Compound: CC1CNCCN1S(=O)(=O)c1cccc2cnccc12 (centres unmarked) [H-7, 1-(5-isoquinoryl-sulfonyl)-2-methyl-piperazine]
- inhibition at 30 µM [2]: ~50%
- inhibitory effects on syncytia formation [2]: no inhibitory effects were observed
- inhibitory activity for syncytium formation [3]: no inhibitory activity for syncytium formation
- inhibitory activity for Env expression [4]: no significant inhibitory activity for Env expression
- effectiveness against HIV infectious disease (HIV): has not been found to be clearly effective

Compound: CN([C@@H](Cc1ccc(OS(=O)(=O)c2cccc3cnccc23)cc1)C(=O)N1CCN(c2ccccc2)CC1)S(=O)(=O)c1cccc2cnccc12 [KN-62, 1-(N,O-bis-[5-isoquinolinylsulfonyl]-N-methyl-L-tyrosyl)-4-phenyl-piperazine]
- inhibition at 30 µM [2]: ~75%
- inhibitory effects on syncytia formation [2]: no inhibitory effects were observed
- inhibitory activity for syncytium formation [3]: no inhibitory activity for syncytium formation
- inhibitory activity for Env expression [4]: weak inhibitory activity for Env expression

Compound: OC[C@@H]1CC[C@H](n2cnc3c(O)ncnc32)O1 [ddI, 2', 3'-dideoxyinosine]
- pIC50 (HIV-1): ~4.00

Compound: Heparin
- effect on blood coagulation time (APTT, PT) (rabbit plasma): clearly extended APTT and PT
